According to patent publication US11117856B2, “Polyamine compounds targeting the efflux pumps of multi-drug resistant bacterial pathogens and methods of using the same” (UNIVERSITY OF SOUTH FLORIDA, priority 2016, dated 2021):
Where “and” joins values, the source holds several entries; their conditions need not be identical. Identical values can stand only once.

Experiments:
[1] = system: tetracycline resistant strain of P. aeruginosa; assay: Checkerboard potentiation assay with tetracycline; assay type: cell-based; details: for FP^#c (Fold Potentiation, EC90): Table 1, tetracycline EC90; for FP* (Fold Potentiation, EC50): EC50 tetracycline with no TPI/with TPI; for FP* (Fold Potentiation, EC50) / FP^# (Fold Potentiation, EC90): 25 μg mL^−1 TPI; for FP^# (Fold Potentiation, EC90): EC90 tetracycline with no TPI/with TPI; for FP*^c (Fold Potentiation, EC50): Table 1, tetracycline EC50; for TPI (inhibitory concentration of the polyamines alone to produce EC values): polyamine alone, no tetracycline, 25 μg mL^−1 highest concentration tested
Method: (§1) The bacterial strains used in this study are multi-drug resistant clinical isolates that have previously been described (TABLE 2) (Fleeman, et al. J. Med. Chem. 2015, 58, 3340-3355). Organisms were grown in tryptic soy broth (TSB) for overnight cultures, and cation adjusted Mueller Hinton broth (CA-MH II) was used for experimental procedures. All incubations were performed at 37° C.
(§2) Scaffold ranking library samples and individual polyamines were screened using checkerboard inhibitory assays to assess the potentiation of tetracycline and chloramphenicol. The test utilized a 96-well plate microtiter assay where the concentration of the scaffold or individual polyamine was decreased from 25 μg mL^−1 to 0.8 μg mL^−1 (average molarity of 65 μM to 4 μM) along the rows, and the concentration of tetracycline or chloramphenicol was increased from 0.4 μM to 100 μM across the columns. Plates were incubated statically at 37° C. for 20 hours, and the optical density (OD600) was determined using a Synergy 2 plate reader (Biotek). Potentiation modeling (detailed below) was performed to determine fold change in the 50% and 90% effective concentration of tetracycline or chloramphenicol.
Potentiation was quantified using a mathematical model developed by our group to assess the ability of library samples and individual compounds to effectively enhance the activity of tetracycline or chloramphenicol (Hoel, D. G. Statistical Aspects of Chemical Mixtures. Methods for assessing the effects of mixtures of chemicals. 1987, New York). […] In this way, only libraries and compounds that potentiated tetracycline or chloramphenicol activity were pursued. The model is based on the following equation for modeling the percentage activity of a mixture of two agents with independent action (Hoel, et al. Statistical Aspects of Chemical Mixtures. Methods for assessing the effects of mixtures of chemicals. 1987, New York): %Antibiotic & Comp(x1,x2)=%Antibiotic(x1)+%Comp(x2)−%Antibiotic(x1)·%Comp(x2)
Here, x1 and x2 are the concentrations of antibiotic (tetracycline or chloramphenicol) and library/compound (Comp) tested, respectively. This equation can be rearranged to model the effective percent activity (EC) of the antibiotic alone, after accounting for compound activity:
[formula] Thus, the model-adjusted checkerboards show the antibiotic activity post-potentiation, and from that one can determine the true change in MIC.

P. aeruginosa biofilm = assay: Pre-formed biofilm viability assessment with tetracycline; assay type: cell-based; details: for biofilm cells recovered, EPI alone: 25 μg mL^−1 (MPC), no tetracycline;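 as to biofilm recovery, combination treatment: percent recovery versus no treatment controls after 20 Hours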
Method: (§3) Lead agents were screened for bactericidal activity as described previously (Van Horn, et al. J. Med. Chem. 2014, 57, 3075-3093; […], et al. J. Med. Chem. 2015, 58, 3340-3355), with the following modifications. […] Biofilm experiments were performed similar to those described previously ([…], et al. J. Med. Chem. 2015, 58, 3340-3355; von Salm, et al. Org. Lett. 2016, 18, 2596-2599), with the following modifications.

P. aeruginosa [2] = assay: Bactericidal assessment with tetracycline; assay type: cell-based
Method: as §3

Hek293T cells = assay: MTT cytotoxicity assay; assay type: cell-based, human; details: 25 μg mL^−1, 48 hours
Method: (§4) To assess toxicity of polyamine compounds we used HepG2 human liver carcinoma cells and Hek293T human embryonic kidney epithelial cells. […] J. Med. Chem. 2015, 58, 3340-3355). […] Cells were then incubated for 48 hours at 37° C. with 5% CO2. Following this, viability was assessed by the addition of MTT and measuring the OD570 in a Biotek plate reader. Percent recovery was determined compared to no drug controls.

HepG2 cells = assay: MTT cytotoxicity assay; assay type: cell-based, human; details: 25 μg mL^−1 (highest concentration tested), 48 hours
Method: as §4

P. aeruginosa [3] = assay: Checkerboard potentiation assay with chloramphenicol; assay type: cell-based; details: increasing EPI concentration, dose response
Method: as §1
as §2, with “Potentiation modeling (detailed below) was performed to determine fold change in the 50% and 90% effective concentration of tetracycline or chloramphenicol.” left out
Potentiation was quantified using a mathematical model developed by our group to assess the ability of library samples and individual compounds to effectively enhance the activity of tetracycline or chloramphenicol (Hoel, D. G. Statistical Aspects of Chemical Mixtures. Methods for assessing the effects of mixtures of chemicals. 1987, New York). […]

P. aeruginosa cells = assay: Bacterial membrane depolarization (DiSC3 dye); assay type: cell-based; details: 25 μg mL^−1
Method: To determine the level of membrane depolarization by polyamine compounds a 3,3′-dipropylthiadicarbocyanine Iodide (DiSC3) fluorescence dye was used. Exponentially growing cultures were prepared as described above, before being harvested by centrifugation. Cells were next washed in buffer A (5 mM HEPES pH 7.2, 5 mM glucose) and resuspended to an OD600 of 0.2 in the same buffer containing 100 mM KCl and 2 μM DiSC3. Samples were allowed to equilibrate for 15 minutes at room temperature to ensure uptake and quenching of the dye in bacterial membranes. Cells were aliquoted into 96-well plates and polyamines were added alongside the known efflux inhibitor PAN (all at 25 μg mL^−1). Nisin (25 μg mL^−1) was used as a positive control to display depolarization effects. A Biotek plate reader was used to monitor fluorescence of wells, with a 622 nm excitation and 670 nm emission. For graphical representation, the maximum relative fluorescence at 2 minutes was used for comparison of lead agents to controls.

[4] = 25 μM tetracycline + MPC of EPI
[5] = 50 μM tetracycline + MPC of EPI
[6] = 12 μM tetracycline + MPC of EPI

| Molecule | FP^#c (Fold Potentiation, EC90) [1] | biofilm recovery, combination treatment (P. aeruginosa biofilm; [4]) | biofilm cells recovered, EPI alone (P. aeruginosa biofilm) | biofilm recovery, combination treatment (P. aeruginosa biofilm; [5]) | FP* (Fold Potentiation, EC50) [1] | FP^# (Fold Potentiation, EC90) [1] | FP*^c (Fold Potentiation, EC50) [1] | TPI (inhibitory concentration of the polyamines alone to produce EC values) [1] | percent recovery, combination treatment (P. aeruginosa [2]; [6]) | percent recovery, combination treatment (P. aeruginosa [2]; [5]) | percent recovery of Hek293T cells compared to solvent only controls (Hek293T cells) | HepG2 cell viability / recovery (HepG2 cells) | change in DiSC3 fluorescence (membrane depolarization) (P. aeruginosa cells) | further results |
| --- | --- | --- | --- | --- | --- | --- | --- | --- | --- | --- | --- | --- | --- | --- |
| COC(=O)[C@H]1[C@H]2C[C@@H]3c4[nH]c5cc(OC)ccc5c4CCN3C[C@H]2C[C@@H](OC(=O)c2cc(OC)c(OC)c(OC)c2)[C@@H]1OC [Reserpine, reference compound] | 1 fold | – | – | – | – | – | – | – | – | – | – | – | – | – |
| CNCCCC[C@@H](CN)NC[C@H](Cc1ccccc1)NCCc1ccccc1 [TPI 247, (S)—N6-methyl-N2—((S)-2-(phenethylamino)-3-phenylpropyl)hexane-1,2,6-triamine] | 8.3 fold | 0.6% | 99.99% | 0.2% | 5 fold | 7.5 fold | 5 fold and 5.0 fold | >25 µg/mL | 2.9% | 0.04% | 84% | – | – | – |
| NCC[C@@H](CN)NC[C@H](Cc1ccccc1)NCCc1ccccc1 [TPI 250, (S)—N^2—((S)-2-(phenethylamino)-3-phenylpropyl)butane-1,2,4-triamine] | 7.8 fold | 1% | 99.99% | 0.5% | 7 fold | 7.8 fold | 7.0 fold | >25 µg/mL | 2.2% | 0.01% | – | 80% | – | biofilm recovery, combination treatment (P. aeruginosa biofilm; [6]): 21%; improvement of tetracycline alone biofilm eradication (P. aeruginosa biofilm; [6]): 67% |
| CNCCCC[C@H](CN)NC[C@H](Cc1ccccc1)NCCc1ccccc1 [TPI 266, (R)—N^6-methyl-N^2—((S)-2-(phenethylamino)-3-phenylpropyl)hexane-1,2,6-triamine] | 5.8 fold | 1% | 92% | 0.6% | 6.8 fold | 5.8 fold | 6.8 fold | >25 µg/mL | 0.76% | 0.01% | 72% | – | – | potentiation of chloramphenicol EC90 (P. aeruginosa [3]): highest potentiation values |
| NCCC[C@H](CN)NC[C@H](Cc1ccccc1)NCCc1ccccc1 [TPI 271, (R)—N^2—((S)-2-(phenethylamino)-3-phenylpropyl)pentane-1,2,5-triamine] | 8.5 fold | 0.5% | 99.99% | 0.2% | 8.2 fold | 8.5 fold | 8.2 fold | >25 µg/mL | 2% | 0.02% | 75% | 74% | – | – |
| NCCC[C@@H](CN[C@H](CN)Cc1ccccc1)NCCc1ccccc1 [TPI 314, (S)—N^1—((S)-1-amino-3-phenylpropan-2-yl)-N^2-phenethylpentane-1,2,5-triamine] | 7.5 fold | 1% | 99.99% | 0.6% | 5 fold | 7.5 fold | 5 fold and 5.0 fold | >25 µg/mL | 5.3% | 0.01% | – | 77% | – | – |
| O=C(N[C@H](CO)[C@H](O)c1ccc([N+](=O)[O-])cc1)C(Cl)Cl [chloramphenicol] | – | – | – | – | – | – | – | – | – | – | – | – | decreased in florescence | – |
| CN(C)[C@@H]1C(O)=C(C(N)=O)C(=O)[C@@]2(O)C(O)=C3C(=O)c4c(O)cccc4[C@@](C)(O)[C@H]3C[C@@H]12 [tetracycline, reference compound] | – | – | – | – | – | – | – | – | – | – | – | – | – | more biofilm eradication on increasing tetracycline by itself (P. aeruginosa biofilm; from 12 μM to 25 μM): 4%; biofilm cells recovered, tetracycline alone (P. aeruginosa biofilm; tetracycline 50 μM): 9%; EC50 ([1]; Pseudomonas aeruginosa, no EPI, average across all replicates, read-out: tetracycline alone EC50): 47.8 µM; EC90 ([1]; no library or EPI, average across all replicates, read-out: tetracycline alone EC90): 82.5 µM; less recovery on increasing tetracycline alone (P. aeruginosa [2]; from 12 μM to 25 μM): 17.8%; bacterial recovery, tetracycline alone (P. aeruginosa [2]; tetracycline 12 μM): 53%; bacterial recovery, tetracycline alone (P. aeruginosa [2]; tetracycline 25 μM): 35%; bacterial recovery, tetracycline alone (P. aeruginosa [2]; tetracycline 50 μM): 1% |
| nisin | – | – | – | – | – | – | – | – | – | – | – | – | strong increase in fluorescence | – |
| phenylalanine arginine beta naphthalamide [PAβN, reference compound] | 8 fold | 7% | – | 1% | – | – | 65.5 fold | – | 0.79% | 0.02% | 63% | 68% | strong increase in fluorescence | TPL (inhibitory concentration of the Torrey Pines Library alone to produce an EC90 value) [1]: >25 µg/mL; FP (Fold Potentiation, EC90) ([1]; EC90 tetracycline with no TPL/EC90 tetracycline with TPL, 25 μg mL−1 library): 8.01 fold; EPI*^a (inhibitory concentration of the individual Efflux Pump Inhibitor alone) ([1]; EPI alone, 50% effective concentration): >25 µg/mL; percent recovery, combination treatment (P. aeruginosa [2]; [4]): 0.2%; bacterial recovery (viability), EPI alone (P. aeruginosa [2]; 25 μg mL^−1, no tetracycline): 76% |
